Experimental data from ChEMBL document CHEMBL5380869, “Discovery of an Oral, Beyond-Rule-of-Five Mcl-1 Protein-Protein Interaction Modulator with the Potential of Treating Hematological Malignancies” (J Med Chem, 2023).
Values after ≈ are worked out from the molar mass of the structure shown. Active and inactive are the calls of the source. No cut-off for these calls is given here.

Tests used:
[1] = Metabolic stability in human hepatocytes assessed as half life at 1 uM measured by LC-MS/MS analysis; assay type: ADME, cell-based, Hepatocyte
[2] = test system: MOLM-13; experiment: In vivo inhibition of Mcl-1 in human MOLM-13 cells sc implanted in NSG mouse assessed as disruption of Mcl-1/Bak complex in tumor at 10 mg/kg, po; assay type: functional, organism-based
[3] = Cardiotoxicity risk in human iPSC-CM assessed as calcium transients at 0.1 uM by CTCM assay; assay type: toxicity, cell-based
[4] = target: T1, Cytochrome P450 2C8 (Homo sapiens, UniProt P10632); experiment: Inhibition of human CYP2C8 assessed as fluorescent metabolites by CYP450 inhibition assay; assay type: ADME
T1 sequence (P10632 whole entry): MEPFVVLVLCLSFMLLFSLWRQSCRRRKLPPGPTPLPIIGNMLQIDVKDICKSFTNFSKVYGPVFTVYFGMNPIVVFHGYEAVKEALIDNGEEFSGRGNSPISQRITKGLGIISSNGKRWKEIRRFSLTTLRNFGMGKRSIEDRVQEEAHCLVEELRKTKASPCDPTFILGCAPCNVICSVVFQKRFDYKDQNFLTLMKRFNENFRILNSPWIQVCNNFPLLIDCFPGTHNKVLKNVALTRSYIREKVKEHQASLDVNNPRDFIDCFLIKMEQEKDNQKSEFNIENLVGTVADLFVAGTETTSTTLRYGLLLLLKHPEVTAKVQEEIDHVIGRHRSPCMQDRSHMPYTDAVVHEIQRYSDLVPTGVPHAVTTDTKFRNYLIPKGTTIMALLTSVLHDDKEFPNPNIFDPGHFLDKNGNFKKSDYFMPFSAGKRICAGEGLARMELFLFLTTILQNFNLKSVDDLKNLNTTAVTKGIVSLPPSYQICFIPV

[5] = Hepatic intrinsic clearance in Swiss CD-1 mouse hepatocytes measured per 10^6 cells at 1 uM measured upto 120 mins by LC-MS/MS analysis; assay type: ADME, cell-based, Hepatocyte; details: read-out: CLH
[6] = target: T2, CYP1A2 (Homo sapiens, UniProt P05177); experiment: Induction of human CYP1A2 assessed as fold change at 1 uM by CYP450 induction assay; assay type: ADME; details: read-out: FC
T2 sequence (P05177 whole entry): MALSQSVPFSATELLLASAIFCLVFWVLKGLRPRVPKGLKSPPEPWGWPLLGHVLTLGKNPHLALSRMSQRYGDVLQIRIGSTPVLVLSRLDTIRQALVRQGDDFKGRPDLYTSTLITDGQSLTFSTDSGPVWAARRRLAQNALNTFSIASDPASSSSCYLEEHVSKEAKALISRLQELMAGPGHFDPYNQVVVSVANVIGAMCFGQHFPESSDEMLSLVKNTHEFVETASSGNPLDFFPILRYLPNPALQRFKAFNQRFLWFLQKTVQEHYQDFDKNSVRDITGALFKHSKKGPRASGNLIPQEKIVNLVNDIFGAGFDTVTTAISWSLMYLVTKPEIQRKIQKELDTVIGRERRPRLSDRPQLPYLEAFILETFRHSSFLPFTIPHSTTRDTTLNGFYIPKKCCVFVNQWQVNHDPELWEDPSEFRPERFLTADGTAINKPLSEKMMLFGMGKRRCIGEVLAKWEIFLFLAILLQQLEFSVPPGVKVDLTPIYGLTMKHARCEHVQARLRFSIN

[7] = Volume of distribution at steady state in CD1 mouse at 1 mg/kg, iv administered as bolus dose; assay type: ADME, organism-based; details: in vivo, read-out: Vdss
[8] = Fraction unbound in mouse plasma at 5 uM incubated for 4.5 hrs by rapid equilibrium dialysis; assay type: ADME, cell-free
[9] = Cardiotoxicity risk in human iPSC-CM assessed as calcium transients at 1 uM by CTCM assay; assay type: toxicity, cell-based
[10] = Inhibition of terbium-labelled Mcl-1 (unknown origin)/Bim BH3 peptide (H3N-(C/Cy5Mal)-WIAQELRRIGDEFN-OH) (unknown origin) interaction assessed as displacement of Cy5-labeled Bim BH3 peptide by TR-HTRF assay
[11] = target: Cytochrome P450 2D6 (Homo sapiens, UniProt P10635); experiment: Inhibition of human CYP2D6 assessed as fluorescent metabolites by CYP450 inhibition assay; assay type: ADME
Sequence of Cytochrome P450 2D6 (P10635 whole entry): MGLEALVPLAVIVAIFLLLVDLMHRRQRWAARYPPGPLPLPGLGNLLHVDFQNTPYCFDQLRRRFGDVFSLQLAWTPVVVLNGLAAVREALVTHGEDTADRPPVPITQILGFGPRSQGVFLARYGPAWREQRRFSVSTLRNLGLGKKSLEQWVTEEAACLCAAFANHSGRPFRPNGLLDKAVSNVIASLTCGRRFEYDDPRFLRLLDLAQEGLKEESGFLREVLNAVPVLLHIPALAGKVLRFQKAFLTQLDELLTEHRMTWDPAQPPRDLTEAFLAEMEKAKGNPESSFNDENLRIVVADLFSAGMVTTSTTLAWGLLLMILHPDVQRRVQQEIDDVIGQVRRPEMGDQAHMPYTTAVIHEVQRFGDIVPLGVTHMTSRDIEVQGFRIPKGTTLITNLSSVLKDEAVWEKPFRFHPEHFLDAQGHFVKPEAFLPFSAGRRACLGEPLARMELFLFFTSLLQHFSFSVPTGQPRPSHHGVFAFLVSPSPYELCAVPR

[12] = Lipophilicity, CHI logD of compound at pH 7.4 by UPLC-TOF analysis; assay type: physicochemical; details: buffer
[13] = Cardiotoxicity risk in human iPSC-CM assessed as calcium transients at 3 uM by CTCM assay; assay type: toxicity, cell-based
[14] = Hepatic intrinsic clearance in human hepatocytes measured per 10^6 cells at 1 uM measured upto 120 mins by LC-MS/MS analysis; assay type: ADME, cell-based, Hepatocyte; details: read-out: CLH
[15] = Clearance in CD1 mouse at 1 mg/kg, iv administered as bolus dose; assay type: ADME, organism-based; details: in vivo
[16] = AUClast in CD1 mouse at 5 mg/kg, po administered as bolus dose; assay type: ADME, organism-based; design: dose 5 mg/kg, route po; details: in vivo
[17] = Half life in CD1 mouse at 1 mg/kg, iv administered as bolus dose; assay type: ADME, organism-based; details: in vivo
[18] = Initial plasma concentration in CD1 mouse at 1 mg/kg, iv administered as bolus dose; assay type: ADME, organism-based
[19] = test system: MOLM-13; experiment: In vivo inhibition of Mcl-1 in human MOLM-13 cells sc implanted in NSG mouse assessed as disruption of Mcl-1/Bim complex in tumor at 10 mg/kg, po; assay type: functional, organism-based
[20] = target: T3, CYP3A4 (Homo sapiens, UniProt P08684); experiment: Induction of human CYP3A4 assessed as fold change at 1 uM by CYP450 induction assay; assay type: ADME; details: read-out: FC
T3 sequence (P08684 whole entry): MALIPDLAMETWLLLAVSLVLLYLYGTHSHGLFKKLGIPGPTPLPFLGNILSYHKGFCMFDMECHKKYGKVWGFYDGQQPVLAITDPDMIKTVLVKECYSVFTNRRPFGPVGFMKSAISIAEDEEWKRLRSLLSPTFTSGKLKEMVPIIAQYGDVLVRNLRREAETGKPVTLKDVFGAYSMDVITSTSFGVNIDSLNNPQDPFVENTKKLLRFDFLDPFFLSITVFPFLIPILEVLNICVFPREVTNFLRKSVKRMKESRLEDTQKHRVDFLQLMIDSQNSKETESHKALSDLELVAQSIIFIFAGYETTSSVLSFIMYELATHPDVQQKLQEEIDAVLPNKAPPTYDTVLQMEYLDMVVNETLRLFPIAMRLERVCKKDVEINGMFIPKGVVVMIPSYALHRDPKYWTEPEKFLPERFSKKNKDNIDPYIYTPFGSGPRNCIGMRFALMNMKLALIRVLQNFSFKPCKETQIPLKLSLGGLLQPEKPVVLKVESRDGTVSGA

[21] = Cardiotoxicity risk in human iPSC-CM assessed as calcium transients at 0.3 uM by CTCM assay; assay type: toxicity, cell-based
[22] = Metabolic stability in Swiss CD-1 mouse hepatocytes assessed as half life at 1 uM measured by LC-MS/MS analysis; assay type: ADME, cell-based, Hepatocyte
[23] = Tmax in CD1 mouse at 5 mg/kg, po administered as bolus dose; assay type: ADME, organism-based; details: in vivo
[24] = target: Cytochrome P450 2C9 (Homo sapiens, UniProt P11712); experiment: Inhibition of human CYP2C9 assessed as fluorescent metabolites by CYP450 inhibition assay; assay type: ADME
Sequence of Cytochrome P450 2C9 (P11712 whole entry): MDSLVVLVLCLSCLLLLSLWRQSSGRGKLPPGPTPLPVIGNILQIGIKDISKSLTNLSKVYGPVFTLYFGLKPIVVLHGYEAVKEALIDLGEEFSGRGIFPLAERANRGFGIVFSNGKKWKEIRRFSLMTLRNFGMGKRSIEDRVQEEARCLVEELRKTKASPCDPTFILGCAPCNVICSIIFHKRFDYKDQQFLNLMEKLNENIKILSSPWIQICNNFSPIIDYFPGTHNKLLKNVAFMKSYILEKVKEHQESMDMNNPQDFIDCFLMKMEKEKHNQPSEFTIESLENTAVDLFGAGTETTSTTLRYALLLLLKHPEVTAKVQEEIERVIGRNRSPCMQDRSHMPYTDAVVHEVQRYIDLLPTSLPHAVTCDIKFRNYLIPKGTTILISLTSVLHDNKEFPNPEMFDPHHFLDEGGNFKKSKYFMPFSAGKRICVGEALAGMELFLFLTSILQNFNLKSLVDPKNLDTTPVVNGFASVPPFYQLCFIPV

[25] = target: T3, CYP3A4; experiment: Induction of human CYP3A4 assessed as fold change at 10 uM by CYP450 induction assay; assay type: ADME; details: read-out: FC
[26] = test system: MOLP-8; experiment: Induction apoptosis in human MOLP8 cells assessed as cell killing measured after 2 hrs by Caspase-Glo 3/7 Assay; assay type: functional, cell-based; details: MOLP-8, 2 h
[27] = Fraction unbound in human plasma at 5 uM incubated for 4.5 hrs by rapid equilibrium dialysis; assay type: ADME, cell-free
[28] = target: Cytochrome P450 2C19 (Homo sapiens, UniProt P33261); experiment: Inhibition of human CYP2C19 assessed as fluorescent metabolites by CYP450 inhibition assay; assay type: ADME
Sequence of Cytochrome P450 2C19 (P33261 whole entry): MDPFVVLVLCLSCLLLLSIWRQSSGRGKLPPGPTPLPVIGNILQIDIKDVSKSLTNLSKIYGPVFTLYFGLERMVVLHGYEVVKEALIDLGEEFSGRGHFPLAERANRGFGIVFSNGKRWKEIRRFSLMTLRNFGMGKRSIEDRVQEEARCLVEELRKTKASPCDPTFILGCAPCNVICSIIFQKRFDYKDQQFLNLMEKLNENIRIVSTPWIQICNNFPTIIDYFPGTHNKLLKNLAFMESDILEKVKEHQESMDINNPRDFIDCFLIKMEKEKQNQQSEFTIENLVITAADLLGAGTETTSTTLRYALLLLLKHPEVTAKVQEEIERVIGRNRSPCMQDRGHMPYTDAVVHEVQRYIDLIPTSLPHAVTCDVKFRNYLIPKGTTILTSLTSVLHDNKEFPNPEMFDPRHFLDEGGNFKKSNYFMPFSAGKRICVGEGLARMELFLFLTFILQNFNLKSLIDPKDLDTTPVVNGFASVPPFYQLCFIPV

[29] = Toxicity in NSG mouse xenografted with human MOLM-13 cells at 10 mg/kg, po; assay type: organism-based; details: in vivo
[30] = Cmax in CD1 mouse at 5 mg/kg, po administered as bolus dose; assay type: ADME, organism-based; design: dose 5 mg/kg, route po; details: in vivo
[31] = Thermodynamic (equilibrium) solubility of the compound measured after 3 days agitation in pH 7 buffer by LC-MS/MS analysis; assay type: physicochemical; details: time 3 day, read-out: Therm_solubility
[32] = Oral bioavailability in CD1 mouse at 5 mg/kg administered as bolus dose; assay type: ADME, organism-based; details: in vivo
[33] = Thermodynamic (equilibrium) solubility of the compound measured after 3 days agitation in pH 2 buffer by LC-MS/MS analysis; assay type: physicochemical; details: time 3 day, read-out: Therm_solubility
[34] = Fraction absorbed in CD1 mouse at 5 mg/kg, po administered as bolus dose; assay type: ADME, organism-based; details: in vivo, read-out: Fabs
[35] = target: T4, Cytochrome P450 1A2 (Homo sapiens, UniProt P05177); experiment: Inhibition of human CYP1A2 assessed as fluorescent metabolites by CYP450 inhibition assay; assay type: ADME
T4 sequence (P05177 whole entry): T2 sequence (P05177 whole entry)

[36] = Intrinsic clearance in mouse liver microsomes measured upto 60 mins by LC-MS/MS analysis; assay type: ADME, Microsome; details: read-out: CLH
[37] = Intrinsic clearance in human liver microsomes measured upto 60 mins by LC-MS/MS analysis; assay type: ADME, Microsome; details: read-out: CLH

## COc1nn(C)cc1C(=O)N[S@@]1(=O)=NC(=O)c2ccc3c(c2)N(C[C@@H]2CCO[C@H]2[C@@H](OC)/C(F)=C/C[C@H](C)C1)C[C@@]1(CCCc2cc(Cl)ccc21)CO3
[1]
  t1/2: 5.8 h
[2]
  inhibition: Active
[3]
  Activity: Non-Toxic
[4]
  IC50: 5010 nM
[5]
  hepatocyte CLint at 1 µM: < 1.24 µL/min/1e6 cells
[6]
  fold induction at 1 µM: 0.95
[7]
  Vd: 3.01 L/kg
[8]
  Fu: 0.02%
[9]
  Activity: Non-Toxic
[10]
  Ki: 0.011 nM
[11]
  inhibition (INH): Not Active
[12]
  chromatographic logD: 3
[13]
  Activity: Non-Toxic
[14]
  hepatocyte CLint at 1 µM: 1.99 µL/min/1e6 cells
[15]
  clearance: 25 mL/min/kg
[16]
  AUC(0-t): 2520 ng·h/mL
[17]
  half-life: 1.81 h
[18]
  C0: 574 ng/mL
[19]
  inhibition: Active
[20]
  fold induction at 1 µM: 1.3
[21]
  Activity: Non-Toxic
[22]
  half-life at 1 µM: > 9.33 h
[23]
  Tmax: 2.33 h
[24]
  inhibition (INH): Not Active
[25]
  fold induction at 10 µM: 4.4
[26]
  AC50: 44 nM
[27]
  Fu: 0.05%
[28]
  inhibition (INH): Not Active
[29]
  Activity: Non-Toxic
[30]
  Cmax: 578 ng/mL
[31]
  solubility thermodynamic at 72 h: 520 µM (≈ 401 µg/mL)
[32]
  bioavailability: 78%
[33]
  solubility thermodynamic at 72 h: < 0.1 µM
[34]
  Fa: 99%
[35]
  inhibition (INH): Not Active
[36]
  microsomal CLint: 15 µL/min/mg
[37]
  microsomal CLint: < 7.7 µL/min/mg
